Key:
Paracoccus sp. [1] = assay: Antibiofilm activity against Paracoccus sp. 4M6 assessed as inhibition of bacterial adhesion after 15 hrs by fluorescence assay; type: functional; details: Paracoccus sp. (in: a-proteobacteria), 4M6, 15 h
[2] = system: Pseudoalteromonas sp. D41; assay: Antibiofilm activity against Pseudoalteromonas sp. D41 assessed as inhibition of bacterial adhesion after 15 hrs by fluorescence assay; type: functional; details: Pseudoalteromonas sp. D41, 15 h
Paracoccus sp. [3] = assay: Antibiofilm activity against Paracoccus sp. 4M6 assessed as inhibition of bacterial adhesion at 200 uM after 15 hrs by fluorescence assay; type: functional; details: Paracoccus sp. (in: a-proteobacteria), 4M6, 15 h; values are per cent of control
[4] = system: Pseudoalteromonas sp. D41; assay: Antibiofilm activity against Pseudoalteromonas sp. D41 assessed as inhibition of bacterial adhesion at 200 uM after 15 hrs by fluorescence assay relative to control; type: functional; details: Pseudoalteromonas sp. D41, 15 h
[5] = Antibacterial activity against Pseudoalteromonas sp. D41 assessed as growth inhibition at 100 uM up to 6 hrs by viability assay; details: pseudoalteromonas sp. d41, 6 h
[6] = Antibacterial activity against Paracoccus sp. 4M6 assessed as growth inhibition at 10 uM up to 6 hrs by viability assay
[7] = Antibacterial activity against Pseudoalteromonas sp. D41 assessed as growth inhibition at 10 uM up to 6 hrs by viability assay; details: pseudoalteromonas sp. d41, 6 h
[8] = Antibacterial activity against Paracoccus sp. 4M6 assessed as growth inhibition at 100 uM up to 6 hrs by viability assay
Pseudomonas aeruginosa [9] = assay: Antibiofilm activity against Pseudomonas aeruginosa assessed as dispersion of bacterial biofilm; type: functional, organism-based
Pseudomonas aeruginosa [10] = assay: Antibiofilm activity against Pseudomonas aeruginosa assessed as modulation of biofilm formation; type: functional, organism-based

SMILES	EC50 (Paracoccus sp. [1])	EC50 [2]	further results
Oc1ccc(Cn2nncc2-c2cc(O)cc(O)c2)cc1	> 200 µM	> 200 µM	–
Oc1cccc(Cn2cc(-c3cc(O)cc(O)c3)nn2)c1	> 200 µM	> 200 µM	–
COc1cccc(Cn2nncc2-c2ccccc2)c1	> 200 µM	> 200 µM	response, % of control at 200 µM (Paracoccus sp. [3]): 142%; inhibition at 200 µM [4]: 50.5%
Oc1ccc(Cn2cc(-c3cc(O)cc(O)c3)nn2)cc1	181 µM	> 200 µM	–
Oc1cccc(Cn2nncc2-c2cc(O)cc(O)c2)c1	> 200 µM	> 200 µM	–
Oc1ccc(-c2cnnn2Cc2cccc(O)c2)cc1	> 200 µM	> 200 µM	–
COc1ccc(Cn2nncc2-c2ccccc2)cc1	> 200 µM	> 200 µM	response, % of control at 200 µM (Paracoccus sp. [3]): 127%; inhibition at 200 µM [4]: 70.9%
COc1cccc(Cn2cc(-c3cc(OC)cc(OC)c3)nn2)c1	> 200 µM	34.8 µM	growth inhibition (GI) [5]: Non-toxic
COc1ccc(Cn2nncc2CCc2ccccc2)cc1	> 200 µM	> 200 µM	response, % of control at 200 µM (Paracoccus sp. [3]): 97.8%; inhibition at 200 µM [4]: 78.5%
Oc1ccc(Cn2nncc2-c2ccc(O)cc2)cc1	> 200 µM	> 200 µM	–
COc1cccc(Cn2nncc2-c2cc(OC)cc(OC)c2)c1	> 200 µM	48.6 µM	growth inhibition (GI) [5]: Non-toxic
Oc1ccc(Cn2cc(-c3ccc(O)cc3)nn2)cc1	131 µM	> 200 µM	–
CCn1cc(C(=O)O)c(=O)c2cc(F)c(N3CCNCC3)cc21 [NORFLOXACIN]	–	–	growth inhibition (GI) [6]: Toxic; growth inhibition (GI) [7]: Toxic
Oc1ccc(-c2cn(Cc3cccc(O)c3)nn2)cc1	41.2 µM	129 µM	growth inhibition (GI) [8]: Non-toxic
COc1ccc(Cn2nncc2Cc2ccccc2)cc1	199 µM	> 200 µM	inhibition at 200 µM [4]: 55.5%
COc1ccc(Cn2cc(-c3ccc(OC)cc3)nn2)cc1	> 200 µM	> 200 µM	–
COc1ccc(Cn2nncc2-c2cc(OC)cc(OC)c2)cc1	90.3 µM	37.2 µM	growth inhibition (GI) [8]: Non-toxic; growth inhibition (GI) [5]: Non-toxic
COc1cccc(Cn2nncc2CCc2ccccc2)c1	> 200 µM	> 200 µM	response, % of control at 200 µM (Paracoccus sp. [3]): 65.5%; inhibition at 200 µM [4]: 86.4%
COc1ccc(Cn2cc(-c3cc(OC)cc(OC)c3)nn2)cc1	199 µM	62 µM	growth inhibition (GI) [5]: Non-toxic
COc1cccc(Cn2nncc2Cc2ccccc2)c1	> 200 µM	> 200 µM	response, % of control at 200 µM (Paracoccus sp. [3]): 149%; inhibition at 200 µM [4]: 58.5%
COc1ccc(Cn2nncc2-c2ccc(OC)cc2)cc1	> 200 µM	> 200 µM	–
COc1ccc(-c2cnnn2Cc2cccc(OC)c2)cc1	> 200 µM	172 µM	–
COc1ccc(-c2cn(Cc3cccc(OC)c3)nn2)cc1	> 200 µM	> 200 µM	–
COc1ccc(Cc2[nH]c(=N)n(C)c2Cc2ccc(O)cc2)cc1 [NAAMINE A]	–	–	EC50 (Pseudomonas aeruginosa [9]): 436 µM; EC50 (Pseudomonas aeruginosa [10]): 436 µM
